Data as given in article PMC13220710 (Bioorganic & medicinal chemistry letters, 2025).
Where two headings read alike, the source gives them in different places.

Columns and labels:
[1] = tested on: PC3 prostate cancer cell line; experiment: Anti-proliferative activity versus PC3 cells in MTS assay; format: cell-based
[2] = tested on: PC3 cells; settings: cited from earlier work

IC50 ([1]; Homo sapiens, PC-3, read-out: IC50, viability in prostate cancer cell line PC3) [µM] | IC50 ([1]; read-out: IC50, viability in prostate cancer cell line PC3, MTS assay, triplicate) [µM] | Structure (SMILES) | effect on PC3 cells [2]
2.8 ± 0.8 | – | COc1cccc2c1C(=O)c1c(O)c3c(c(O)c1C2=O)C[C@@](O)(C(=O)CO)C[C@@H]3O[C@H]1C[C@H](N)[C@H](O)[C@H](C)O1 [Doxorubicin] | –
– | 52.1 ± 6.5 | CC1CCN(CC[C@H]2CCCN2S(=O)(=O)c2cccc(O)c2)CC1 [SB-269970] | inhibited proliferation and induced apoptosis in PC3 cells
